# Measured values: patent publication US20260365698A1, “STAPLED PEPTIDES FOR SENSITIZATION OF CANCER TO TREATMENT” (Purdue Research Foundation, priority 2022, published 2026)
# Entries after “also recorded” stand apart in the source; their conditions may differ. Bridge positions count the residues as written; N and C are the ends. Square brackets hold non-standard residues; d marks the D form. Peptide text beside a SMILES is read from it. S5 = C=CCCC[C@](C)(N)C(=O)O
# Key:
# [1] = molecular target: T1, Nrf2-MafG-DNA ARE complex (Homo sapiens, UniProt O15525); assay: Fluorescence polarization assay with Nrf2, MafG and FAM-labeled ARE; assay type: biochemical; details: 200 nM His-MBP-NRF2, 200 nM His-MafG, 20 nM FAM-labeled ARE; 'as low as'
# T1 construct: listing gives 93-aa segments
# T1 sequence (O15525 whole entry, one chain of several): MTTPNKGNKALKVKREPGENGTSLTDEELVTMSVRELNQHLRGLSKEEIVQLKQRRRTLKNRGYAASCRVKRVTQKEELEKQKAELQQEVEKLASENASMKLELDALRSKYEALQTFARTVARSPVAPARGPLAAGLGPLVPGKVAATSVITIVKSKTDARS
# Experimental: Briefly, a 96-well plate (VWR® Solid Bottom Assay Plates, 96-well, black) was used to encapsulate each fluorescence polarization reaction. Unless otherwise stated (i.e., ARE only, ARE+MafG), each 100-μL reaction contained 200 nM purified recombinant His-MBP-NRF2, 200 nM purified recombinant His-MafG, various concentrations of molecule, and 20 nM 5′ FAM-labeled ARE all together in 1× PBS solution.
# First, NRF2 was incubated with molecule for 5 minutes with shaking, followed by the addition of MafG for another 5-minute incubation. Finally, ARE was added, and the MafG-NRF2-ARE system was incubated for 10 minutes with shaking. After incubation, the plate was placed into a plate reader (Molecular Devices SpectraMax® iD5 Multi-Mode Microplate Reader). The fluorescence polarization measurement was performed at excitation/emission values of 470:525 nm, respectively. The samples were in triplicate (n=3).
# A549 cells = assay: Confocal microscopy of FITC-labeled peptides, cell permeability; assay type: cell-based
# Experimental: To determine whether this was a result of poor cell permeability by compounds N2S and N3S, fluorophore labeled versions of these peptides were generated, and confocal microscopy was used to determine the abilities of these peptides to enter cells (FIG. 5C).
# Briefly, A549 cells at 9.5×10^4 cells/ml in 600 μl media were plated on 10 mm glass-bottomed, 24-well plates (Chemglass Life Sciences Cell Culture Plate, 24-Well, Fisher Scientific, Waltham, MA) and cultured for overnight at 37 °C, 5% CO2, in complete growth medium (RPMI supplemented with 10% fetal calf serum, L-glutamine, and non-essential amino acids). The next day, cells were treated with fresh, pre-warmed complete growth medium supplemented with the desired FITC-labeled peptide or DMSO vehicle control at a final concentration of 100 μM FITC labeled peptide and 1% DMSO. After 90 minutes of treatment, cells were washed three times in warm PBS to remove excess peptide from the cell surface and left in modified Krebs-Ringer buffer solution [KRBH: 134 mM NaCl. 3.5 mM KCl. 1.2 mM KH2PO4, 0.5 mM MgSO4, 1.5 mM CaCl2), 5 mM NaHCO3, 10 mM HEPES (pH 7.4)] containing Hoechst stain at 1 μg/ml. Cells were immediately analyzed under a Nikon A1 confocal microscope (Resonant). The images were taken at 20× magnification with fluorescence excitation wavelengths at 409 for the Hoechst and 488 for the FITC. Images were processed using NIS-Elements AR. Dietrich et al., Cell permeable stapled peptide inhibitor of Wnt signaling that targets 0-catenin protein-protein interactions, Cell Chemical Biology 24(8): 958-968.e5 (2017); Dougherty et al., Enhancing the cell-permeability of stapled peptides with a cyclic cell-penetrating peptide, J Medicinal Chemistry 62(22): 10098 (2019).
# proteinase K = assay: Proteinase K peptide stability assay; details: 55 μM peptide, 10 μg/mL proteinase K; some significant degradation
# Experimental: Data are from three independent replicates with standard error indicated. Scale bar indicates 50 μm.
# Peptide stability assays were performed using the protocols described in Cromm et al., Protease-resistant and cell-permeable double-stapled peptides targeting the Rab8a GTPase, ACS Chemical Biology 11(8): 2375-2382 (2016). Briefly, 55 μM of peptide was incubated with 10 μg/mL proteinase K for the indicated timepoints. At the end of each time point, 50 μL of the reaction mixture were quenched in 100 μL of a 1:1 mixture acetonitrile/water+1% formic acid (FA). Samples were injected and analyzed on a Triple quad. Analysis was done using an Agilent Technologies 1200 Series attached to an Agilent Technologies 6460 Triple Quad LC/MS. Analysis was performed with a ZORBAX XDB-C18 […], 2.1×50 mm column (Agilent Technologies, Inc., Santa Clara, CA). Eluent A: H2O with 0.1% FA. Eluent B: MeCN with 0.1% FA. Purity analysis utilized the gradient as follows: (A:B, 0.3 mL/min): 95:5, 0 minutes; 95:5, 1 minute; 5:95, 5 minutes; 5:95, 8 minutes: 95:5, 8.5 minutes; 95:5, 12.5 minutes.
# [2] = system: A549 non-small cell lung cancer cells; assay: Incucyte live-cell analysis of combination with cisplatin; synergy by Chou-Talalay method; assay type: cell-based; details: relatively low concentrations of cisplatin, varying concentrations of N1S
# Experimental: Cl values<1 were synergistic (red), CI values=1 were additive (green), and CI values>1 were antagonistic (not observed).
# NTS, cisplatin, or a combination thereof. Error bars represent the standard deviation between three technical replicates. The data are representative of three independent experiments.
# The ability of compound N1S to increase sensitivity to chemotherapeutics was examined. A549 non-small cell lung cancer cells were seeded into a Corning® 96-Well Cell Culture Plate (clear, sterile, non-treated) and incubated for 24 hours. The cells were treated with cisplatin alone, compound NIS alone, or in combination. Immediately following treatment, the cells were placed into an Incucyte® S3 Live-Cell Analysis Instrument (Sartorius AG, Gottingen, Germany) and imaged every two hours for three days. The Incucyte® S3's analytical software was used to calculate cell confluency at each time point. Synergy was determined using the Chou-Talalay method.
# MafG = molecular target: T2, MafG (Homo sapiens, UniProt O15525); assay: Surface plasmon resonance (SPR); assay type: binding
# T2 construct: made in house; host or cells: E. coli Rosetta (DE3), vector pET15B, Ni-NTA purified
# T2 sequence (O15525 whole entry): as the sequence (O15525 whole entry, one chain of several) above
# Experimental: To determine the affinity of binding between MafG and compound NIS, surface plasmon resonance (SPR) was performed with biotin-labeled compound NIS and His-MafG. For all SPR-binding measurements, a Biacore 100-Instrument (Biacore-GE) was used. Binding between MafG and biotin-labeled compound NIS peptide was performed by first immobilizing the biotin N1S peptide on a SA chip (Cytiva, Marlborough, MA). The binding buffer (150 mM NaCl, 10 mM HEPES, pH 7.5, 1 mM MgCl2, 1 mM […] (TCEP) and 0.05% P-20) was used. Biotin-compound NIS (1 μM) was injected at a rate of 10 μl min^−1 for 10 minutes, immobilizing approximately 528 response units. Increasing concentrations of MafG (two-fold dilutions between 2.5 μM and 0.100 μM, including two blanks) were subsequently passed over the Biotin-compound N1S functionalized chip as well as a streptavidin reference surface. Multiple cycle analysis was carried out, without regenerating the chip between different MafG concentrations. Binding data was reference normalized and processed using Prism software, A one-site binding model was applied to the processed data set to determine binding parameters of MafG binding to N1S.
structure (smiles),measurement,setting,value
CC[C@H](C)[C@H](NC(C)=O)C(=O)N[C@H](C(=O)N[C@@H](CCC(=O)O)C(=O)N[C@@H](CC(C)C)C(=O)N[C@@H](CCC(=O)O)C(=O)N[C@@]1(C)CCCC=CCCC[C@@](C)(C(=O)N[C@@H](CC(C)C)C(=O)N[C@@H](CCCCN)C(=O)N[C@@H](CC(=O)O)C(=O)N[C@@H](CCC(=O)O)C(=O)N[C@@H](CCCCN)C(=O)N[C@@H](CCC(=O)O)C(N)=O)NC(=O)[C@H](CC(=O)O)NC(=O)[C@H](CC(C)C)NC(=O)[C@H](CC(=O)O)NC1=O)C(C)C [N1S] (Ac-IVELE[S5]DLD[S5]LKDEKE-NH2; staple 6-10),lowest concentration decreasing binding of the heterodimer to the DNA,[1],0.2 µM
same,cellular and nuclear permeability,"A549 cells; FITC-labeled peptide, 100 μM, 90 minutes, A549 cells",good
same,entry into cells,A549 cells; summary statement,can enter cells
same,time at which significant degradation starts,proteinase K,24 h
same,synergy with cisplatin,[2],synergy was observed; also recorded: strong synergy
same,Kd,"MafG; biotin-labeled N1S on SA chip, His-MafG passed over, one-site binding model, read-out: dissociation constant",337 nM
same,direct binding to MafG,MafG; summary of in vitro analysis,directly binds MafG
